Results reported in publication PMC12093056, “Mechanistic insights into the ATP-mediated and species-dependent inhibition of TrpRS by chuangxinmycin” (RSC Chemical Biology, 2025).

What was measured:
SaTrpRS [1] = target: T1, SaTrpRS (Staphylococcus aureus, UniProt P67594); experiment: ATP consumption, Kinase-Glo luminescence; type: biochemical; conditions: 2 μM ATP, 10 μM Trp, 40 mM MgCl2, 50 mM NH2OH instead of tRNA, pH 7.5, 37 °C, 1.5 h
T1 construct: gene trpS; codon-optimised synthetic gene, C-terminal 6xHis tag (pET-28a), no tag cleavage told; E. coli BL21(DE3); dimer
T1 sequence (P67594 whole entry): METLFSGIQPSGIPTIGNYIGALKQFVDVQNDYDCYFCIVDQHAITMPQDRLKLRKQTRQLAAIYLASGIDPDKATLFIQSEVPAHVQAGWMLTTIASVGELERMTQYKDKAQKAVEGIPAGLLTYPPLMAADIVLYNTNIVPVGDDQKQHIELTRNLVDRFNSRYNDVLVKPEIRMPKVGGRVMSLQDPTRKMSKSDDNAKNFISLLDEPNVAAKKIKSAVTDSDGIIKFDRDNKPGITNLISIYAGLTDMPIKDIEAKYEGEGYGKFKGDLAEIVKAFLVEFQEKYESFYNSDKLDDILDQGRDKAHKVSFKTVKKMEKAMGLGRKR

EcTrpRS [2] = target: T2, EcTrpRS (Escherichia coli, UniProt P00954); experiment: ATP consumption, Kinase-Glo luminescence; type: biochemical; conditions: 2 μM ATP, 10 μM Trp, 40 mM MgCl2, 50 mM NH2OH instead of tRNA, pH 7.5, 37 °C; Trp site
T2 construct: gene trpS; C-terminal 6xHis tag (pET-28a), no tag cleavage told; E. coli BL21(DE3); two chains in asymmetric unit

EcTrpRS [3] = target: T2, EcTrpRS; experiment: X-ray crystal structure; type: binding
SaTrpRS [4] = target: T1, SaTrpRS; experiment: ATP consumption, Kinase-Glo luminescence; type: biochemical; conditions: 2 μM ATP, 10 μM Trp, 40 mM MgCl2, 50 mM NH2OH instead of tRNA, pH 7.5, 37 °C; Trp site
SaTrpRS [5] = target: T1, SaTrpRS; experiment: X-ray crystal structure; type: binding; conditions: Trp site

Structure (SMILES): Nc1ncnc2c1ncn2[C@@H]1O[C@H](COP(=O)(O)OP(=O)(O)OP(=O)(O)O)[C@@H](O)[C@H]1O [ATP]
- ATP consumption, Kinase-Glo luminescence (SaTrpRS [1]): The activity of TrpRS was measured vis ATP hydrolysis using Kinase-Glo® kit

Structure (SMILES): CC1c2c[nH]c3cccc(c23)SC1C(=O)O (centres unmarked) [CXM, chuangxinmycin]
- inhibition (EcTrpRS [2]): Inhibition of EcTrpRS by CXM, dCXM, and mCXM, as measured by ATP hydrolysis assays
- X-ray crystal structure (EcTrpRS [3]; 2.24 Å, open chain A, Trp site, also ternary with ATP and Mg2+ (1.92 and 2.15 Å)): Chain A exists in an open state and binds to a CXM molecule

Structure (SMILES): O=C(O)C1Cc2c[nH]c3cccc(c23)S1 (centres unmarked) [dCXM, 3-demethylchuangxinmycin]
- inhibition (EcTrpRS [2]): Inhibition of EcTrpRS by CXM, dCXM, and mCXM, as measured by ATP hydrolysis assays
- X-ray crystal structure (EcTrpRS [3]; Trp site): The complex structures of these analogues with EcTrpRS and SaTrpRS were solved.

Structure (SMILES): CC1(C)c2c[nH]c3cccc(c23)S[C@H]1C(=O)O [mCXM, 3-methylchuangxinmycin]
- inhibition (SaTrpRS [4]): mCXM exhibits stronger inhibition of SaTrpRS compared to EcTrpRS
- inhibition (EcTrpRS [2]): The inhibitory activity of mCXM against EcTrpRS is lower than that of CXM
- X-ray crystal structure (EcTrpRS [3]; Trp site): The complex structures of these analogues with EcTrpRS and SaTrpRS were solved.
- X-ray crystal structure (SaTrpRS [5]): The complex structures of these analogues with EcTrpRS and SaTrpRS were solved.

Structure (SMILES): N[C@@H](Cc1c[nH]c2ccccc12)C(=O)O [tryptophan]
- X-ray crystal structure (SaTrpRS [5]; 2.32 Å): SaTrpRS in complex with Trp (SaTrpRS/Trp complex)

Structure (SMILES): Nc1ncnc2c1ncn2[C@@H]1O[C@H](COP(=O)(O)OC(=O)[C@@H](N)Cc2c[nH]c3ccccc23)[C@@H](O)[C@H]1O [tryptophanyl-5′-AMP]
- X-ray crystal structure (EcTrpRS [3]; 2.24 Å, endogenous, closed chain B, enzyme-bound reaction intermediate): chain B is in a closed state and binds to an endogenous tryptophanyl-5′-AMP (TrpAMP) molecule
